Assay results taken from patent US20260158005A1, “A SALT-BASED ANTIFUNGAL POWDER PLATFORM FORMULATION FOR AEROSOLIZATION” (AGENCY FOR SCIENCE, TECHNOLOGY AND RESEARCH, priority 2021, published 2026).
≈ marks a conversion by molar mass, not a printed value.

What was measured:
Candida albicans = test: Antifungal activity (MIC, Minimum Inhibitory Concentration); type: cell-based; settings: for MIC: Candida albicans, Table 5, optimized platform formulation vs unformulated
Source text: The responses were Fine Particle Fraction (FPF) and Anti-fungal Activity (MIC—Minimum Inhibitory Concentration) (Table 2), while the tested pathogen was Candida albicans. The antifungal activity was influenced mainly by the type of salt excipient as well (i.e. parameter A; Rank 1), with sodium sulfate as one of the preferred options. The optimum results for all the parameters are: A6, B1, C3, D3.

[1] = In vitro aerosol performance: Fine Particle Fraction (FPF) of the powder; type: physicochemical; settings: Table 5; optimized platform formulation (sodium sulfate 5% w/w, L-leucine 30% w/w, spray dry) vs unformulated
Source text: The responses were Fine Particle Fraction (FPF) and Anti-fungal Activity (MIC—Minimum Inhibitory Concentration) (Table 2), while the tested pathogen was Candida albicans.
The FPF was influenced mainly by the type of salt excipient (i.e., parameter A; Rank 1), with sodium sulfate as one of the preferred options. The optimum results for all the parameters are: A6, B1, C1, D3.
Letters A, B, C and D represent the experimental parameters and corresponding levels.

MIC (Candida albicans) | FPF (%) [1] | SMILES | improvement in antifungal activity (Candida albicans; formulated using the platform technology vs unformulated)
0.25 µg/mL (≈ 0.816 µM) | 2.6 ± 0.1% | OC(Cn1cncn1)(Cn1cncn1)c1ccc(F)cc1F [A, Fluconazole] | approximately 4 times
< 0.03 µg/mL | 3.5 ± 0.3% | C[C@@H](c1ncncc1F)[C@](O)(Cn1cncn1)c1ccc(F)cc1F [C, Voriconazole] | 
< 0.03 µg/mL |  | CCC(C)n1ncn(-c2ccc(N3CCN(c4ccc(OCC5COC(Cn6cncn6)(c6ccc(Cl)cc6Cl)O5)cc4)CC3)cc2)c1=O (stereo not drawn) [B, Itraconazole] | 
